From patent US10233173B2, “Substituted 1,2,3-triazoles as NR2B-selective NMDA modulators” (JANSSEN PHARMACEUTICA NV, priority 2016, dated 2019) come the findings set out here.

Broadly, the IC50 is the concentration that gives 50% inhibition.

human GluN1/GluN2B NMDA receptors, sequence (Q13224 27-1484, other chains not shown): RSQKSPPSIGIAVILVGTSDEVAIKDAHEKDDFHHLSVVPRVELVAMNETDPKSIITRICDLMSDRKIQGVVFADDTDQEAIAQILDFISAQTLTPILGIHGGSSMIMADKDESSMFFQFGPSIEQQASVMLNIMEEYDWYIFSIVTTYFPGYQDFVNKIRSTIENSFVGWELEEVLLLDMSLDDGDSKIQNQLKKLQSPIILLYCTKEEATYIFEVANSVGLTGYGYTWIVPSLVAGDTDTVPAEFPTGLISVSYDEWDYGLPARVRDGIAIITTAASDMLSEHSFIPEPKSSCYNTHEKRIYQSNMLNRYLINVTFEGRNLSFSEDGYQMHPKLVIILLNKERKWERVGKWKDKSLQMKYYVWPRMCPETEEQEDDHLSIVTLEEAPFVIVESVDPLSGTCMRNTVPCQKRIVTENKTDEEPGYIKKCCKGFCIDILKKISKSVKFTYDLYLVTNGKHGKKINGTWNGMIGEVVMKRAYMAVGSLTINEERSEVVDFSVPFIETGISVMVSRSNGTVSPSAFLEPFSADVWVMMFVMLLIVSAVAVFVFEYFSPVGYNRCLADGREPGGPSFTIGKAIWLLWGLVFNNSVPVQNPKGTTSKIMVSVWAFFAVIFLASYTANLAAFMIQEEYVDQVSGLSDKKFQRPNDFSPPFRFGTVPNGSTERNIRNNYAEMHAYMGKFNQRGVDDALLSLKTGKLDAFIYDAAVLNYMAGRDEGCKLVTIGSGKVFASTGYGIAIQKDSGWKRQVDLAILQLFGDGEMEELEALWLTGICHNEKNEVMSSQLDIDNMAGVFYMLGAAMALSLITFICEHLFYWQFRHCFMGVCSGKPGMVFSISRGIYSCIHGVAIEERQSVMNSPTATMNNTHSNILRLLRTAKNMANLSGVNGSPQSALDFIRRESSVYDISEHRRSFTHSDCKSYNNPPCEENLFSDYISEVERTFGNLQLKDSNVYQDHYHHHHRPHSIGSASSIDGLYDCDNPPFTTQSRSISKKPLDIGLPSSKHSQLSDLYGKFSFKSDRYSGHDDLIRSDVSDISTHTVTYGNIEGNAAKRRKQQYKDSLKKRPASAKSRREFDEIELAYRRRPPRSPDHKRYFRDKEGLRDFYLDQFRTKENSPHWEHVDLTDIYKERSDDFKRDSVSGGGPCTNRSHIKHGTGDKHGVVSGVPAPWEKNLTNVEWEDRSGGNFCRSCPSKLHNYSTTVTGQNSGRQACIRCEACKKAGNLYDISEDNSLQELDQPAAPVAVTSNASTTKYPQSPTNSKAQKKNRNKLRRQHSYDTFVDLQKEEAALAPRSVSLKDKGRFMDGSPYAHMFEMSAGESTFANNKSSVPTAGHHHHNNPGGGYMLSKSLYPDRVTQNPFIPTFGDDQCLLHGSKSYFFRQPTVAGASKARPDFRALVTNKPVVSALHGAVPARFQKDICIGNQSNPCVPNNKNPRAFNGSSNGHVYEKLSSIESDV

One experiment addresses human GluN1/GluN2B NMDA receptors (Homo sapiens, UniProt Q05586+Q13224). Kind of experiment: Cell-based calcium flux (FLIPR) assay on cloned human NR1/NR2B ion channels expressed in mammalian cells. The following applies: standard assay; glutamate at ~EC80; FLIPR calcium flux. The gist of the method:
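Calcium influx followed by FLIPR fluorescence after 5 min compound exposure and a further 5 min co-agonist challenge: 10 μM glycine with glutamate at ~EC80 (standard) or EC40 (HTS).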
A general note: Calcium assays in cells follow changes in intracellular calcium, usually with a dye or a luminescent sensor.
On to `Fc1c(-n2cc(COc3ncc(Cl)cn3)nn2)cccc1C(F)(F)F` [Example 461, 5-Chloro-2-[[1-[2-fluoro-3-(trifluoromethyl)phenyl]triazol-4-yl]methoxy]pyrimidine], for which the IC50 came to 0.07 µM.

Turning to `Cc1nc(OCc2cn(-c3ccc(F)c(C(C)(F)F)c3)nn2)ncc1Cl` [Example 574, 5-Chloro-2-[[1-[3-(1,1-difluoroethyl)-4-fluoro-phenyl]triazol-4-yl]methoxy]-4-methyl-pyrimidine], the IC50 is 0.01 µM.

With `Cc1c(F)ccc(-n2cc(COc3nccc(C(C)C)n3)nn2)c1F` [Example 640, 2-[[1-(2,4-Difluoro-3-methyl-phenyl)triazol-4-yl]methoxy]-4-isopropyl-pyrimidine], the IC50 was 1.98 µM. With `CC(F)(F)c1cc(-n2cc(COc3nccc(N4CCCCC4)n3)nn2)ccc1F` [Example 592, 2-[[1-[3-(1,1-Difluoroethyl)-4-fluoro-phenyl]triazol-4-yl]methoxy]-4-(1-piperidyl)pyrimidine], the IC50 was 0.271 µM. `Fc1ccc(-n2cc(COc3nccc(NC4COC4)n3)nn2)cc1OC(F)F` [Example 671, 2-((1-(3-(Difluoromethoxy)-4-fluorophenyl)-1H-1,2,3-triazol-4-yl)methoxy)-N-(oxetan-3-yl)pyrimidin-4-amine]: the IC50 came to 0.126 µM. Take `Cc1cnc(OCc2nnn(-c3ccc(F)c(C(F)F)c3)c2I)nc1` [Example 425, 2-[[1-[3-(Difluoromethyl)-4-fluoro-phenyl]-5-iodo-triazol-4-yl]methoxy]-5-methyl-pyrimidine]: the half-maximal inhibitory concentration (IC50) turned out to be 0.394 µM.

Staying with this experiment, now noted: standard assay; human GluN1/GluN2B, calcium flux (FLIPR), glutamate ~EC80.
Regarding `FCCCc1cnc(OCc2cn(-c3ccc(Cl)c(OC(F)F)c3)nn2)nc1` [Example 196, 2-[[1-[4-Chloro-3-(difluoromethoxy)phenyl]triazol-4-yl]methoxy]-5-(3-fluoropropyl)pyrimidine], the IC50 worked out at 0.024 µM. As for `Fc1ccc(-n2cc(CNc3ccccn3)nn2)cc1OC(F)F` [Example 221, N-((1-(3-(Difluoromethoxy)-4-fluorophenyl)-1H-1,2,3-triazol-4-yl)methyl)pyridin-2-amine], the IC50 came out at 0.724 µM. As for `FC(F)c1cc(-n2cc(COc3ncc(C(F)(F)F)cn3)nn2)ccc1Cl` [Example 45, 2-[[1-[4-Chloro-3-(difluoromethyl)phenyl]triazol-4-yl]methoxy]-5-(trifluoromethyl)pyrimidine], the IC50 was determined as 0.004 µM. Still for that read-out and setting: for `FC(F)Oc1cc(-n2cc(COc3ccncn3)nn2)ccc1Cl` [Example 13, 4-[[1-[4-Chloro-3-(difluoromethoxy)phenyl]triazol-4-yl]methoxy]pyrimidine] the value was 0.879 µM; for `Cc1cc(C)cc(-n2cc(COc3ncccn3)nn2)c1` [Example 360, 2-[[1-(3,5-Dimethylphenyl)triazol-4-yl]methoxy]pyrimidine], 0.791 µM; for `Fc1ccc(-n2cc(COc3ncc(Cl)cn3)nn2)cc1C(F)F` [Example 49, 5-Chloro-2-[[1-[3-(difluoromethyl)-4-fluoro-phenyl]triazol-4-yl]methoxy]pyrimidine], 0.003 µM. For the molecule `CCc1cnc(OCc2cn(-c3cccc(OC(F)F)c3)nn2)nc1` [Example 328, 2-[[1-[3-(Difluoromethoxy)phenyl]triazol-4-yl]methoxy]-5-ethyl-pyrimidine], the IC50 amounted to 0.029 µM. The same measure, in the same setting: then `Fc1ccc(-n2cc(CNc3ncc(C(F)(F)F)cn3)nn2)cc1C(F)F` [Example 213, N-[[1-[3-(Difluoromethyl)-4-fluoro-phenyl]triazol-4-yl]methyl]-5-(trifluoromethyl)pyrimidin-2-amine], with 0.108 µM; and `CC(F)(F)c1cccc(-n2cc(COc3nccc(C(F)F)n3)nn2)c1` [Example 303, 2-[[1-[3-(1,1-Difluoroethyl)phenyl]triazol-4-yl]methoxy]-4-(difluoromethyl)pyrimidine], with 0.085 µM; and `FC(F)c1cnc(NCc2cn(-c3ccc(Cl)c(C(F)F)c3)nn2)nc1` [Example 204, N-[[1-[4-Chloro-3-(difluoromethyl)phenyl]triazol-4-yl]methyl]-5-(difluoromethyl)pyrimidin-2-amine], with 0.24 µM.
